Results: patent US8420606B2, “Method of utilizing physiological activity of rare saccharide and composition containing rare saccharide” (priority 2002, dated 2013)
Entries after “also recorded” stand apart in the source; their conditions may differ.

What was measured:
microglia migration = assay: brain ischemia model, number of appearing microglias; format: in vivo, gerbil; conditions: 200 mg/kg femoral vein 5 minutes before and immediately after 5 minutes ischemia; after 1 week
Protocol: In this Example 11 described below, an influence of ketohexose belonging to the rare saccharides upon the number of microglias appearing with ischemia is examined. […] D-psicose was used as the ketohexose belonging to the rare saccharides. As a brain ischemia model, the bilateral common carotid artery of a male gerbil with weight of about 70 g was shut off for 5 minutes. In this model, neurons in the hippocampus CA1 area of a brain are peculiarly brought to ischemic cell necrosis.
Comparative studies were made on three exemplified groups, i.e., one group not subjected to ischemia (control: Sham), another group subject to ischemia+treatment with physiological saline, and still another group subject to ischemia+treatment with D-psicose.
The D-psicose treatment was performed through the steps of dissolving D-psicose in physiological saline to prepare a D-psicose solution with concentration of 200 mg/mL, and administrating the D-psicose solution to the ischemia model through the femoral vein in units of 200 mg/kg at 5 minuets before ischemia and immediately after the ischemia. The physiological saline treatment was performed by administering only physiological saline instead of the D-psicose solution. After 1 week from the ischemia, perfusion fixation was made and a frozen brain sample of 20 μm was prepared, followed by hematoxyline eosin dyeing.

THP-1 = assay: blood-system cancer cell strain proliferation, Coulter Counter, THP1; format: cell-based; conditions: 0.05-50 mM, 7 days, D-glucose control
Protocol: (§1) (2) Method: Total 6 kinds of cell strains, i.e., Myeloid (HL-60, THP-1, KG-1), T-cell (MT-2), and B-Cell (Daudi, KS-1), and 3 kinds of rare saccharides (i.e., D-psicose, D-altrose, and D-allose), were employed. The culture medium and the cells were prepared to be 1 mL in total and 1×10^5 in number, respectively. Then, the cell number at each of fourth day and seventh day was counted by using a Coulter Counter. Each rare saccharide was added at concentrations of 0.05, 0.5, 5 and 50 mM, while D-glucose was used as a control.
(§2) Culture Medium: FBS 10% added RPMI1460
(§3) Cultivation Conditions: 37° C., 5% CO2
(§4) Cultivation Vessel: FALCON, MULTIWELL, 12 wells
(§5) Number of Cultivation Days: 7 days
(§6) Saccharides Concentration: 0.05, 0.5, 5, 50 mM

[1] = test system: skin keratinocyte (HaCaT); assay: proliferation of cultured cells, MTT method, HaCaT; format: cell-based, human; conditions: saccharide 50 mM, 4 to 5 days
Protocol: Various kinds of rare saccharides were added at a concentration of 50 mM to culture media under the following conditions, and an influence of each rare saccharide upon the progress of proliferation of cancer cell strains was examined.
(1) Target cells to which the rare saccharides were added: Hepatic cancer cells (HepG2), uterine cancer cells (He1a), ovary cancer cells (OVCAR3), and skin keratinocyte (HaCaT) were selected as target cells to which the rare saccharides were added.
(2) Rare saccharides added: In addition to D-allose, glucose and D-altros as rare saccharides belonging to ketose were added, as other comparative saccharides, to the addition target cells. Also, D-fructose was employed as a control.
(3) Experiment method: A number 3,000-5,000 of addition target cells per type were inoculated into a multi-well plastic dish (hereinafter referred to as a “well”) having 96 wells, and were cultured for 4 to 5 days in a culture medium supplemented with 5 to 10% of Fetal Bovine Serum (FBS) depending on the cell types. […] To examine the influence upon the cell proliferation, the cell number was measured in units of 24 hours by using the MTT method described below. […]
(2) Test method: The cells were treated with TEP to prepare a cell suspension liquid. […] The absorbance of the liquid was measured at a wavelength of 570 to 600 nm by using a spectrophotometer. […]

KS-1 = assay: blood-system cancer cell strain proliferation, Coulter Counter, KS1; format: cell-based; conditions: 0.05-50 mM, 7 days, D-glucose control
Protocol: as §1, §2, §3, §4, §5, §6

KG-1 = assay: blood-system cancer cell strain proliferation, Coulter Counter, KG1; format: cell-based; conditions: 0.05-50 mM, 7 days, including the control
Protocol: as §1, §2, §3, §4, §5, §6

[2] = test system: OVCAR3 (ovary cancer) cells; assay: cell cycle analysis by flow cytometer; format: cell-based, human; conditions: D-allose 50 mM, cultured for 3 days; control 12.6%
Protocol: (2) Method: The cell cycle was analyzed by using a flow cytometer. Cells used here were OVCAR3 (ovary cancer) cells. 1) The cells were treated with trypsin to prepare a cell suspension liquid. 2) The cells were inaculated into a plastic tissue with a diameter of 100 mm and cultured for 24 hours (overnight) in a CO2 incubator. 3) Two groups of the cells, i.e., one with a rare saccharide (D-allose 50 mM) and the other with no rare saccharides (with D-glucose as a control), were cultured for 3 days. 4) The separated cells were washed twice with PBS(−). 5) After centrifugation, 3 mL of PBS(−) was added and stirred by pipetting. 6) 7 mL of 100% ethanol was added, followed by fixation at 4° C. for 2 hours. 7) The liquid was subjected to centrifugation at 1500 rpm for 5 minutes. 8) The separated cells were washed twice with cold PBS(−). 9) After centrifugation, 200 μg/mL of RNase was added, followed by incubation at 37° C. for 30 minutes. 10) 0.5 mL of PI (propidum iodide) was added, followed by incubation for 15 minutes. 11) The cell number was measured by using a flow cytometer.

Row | SMILES | number of appearing microglias (microglia migration) | THP1 proliferation inhibitory effect (THP-1) | proliferation of HaCaT cells (cell number over time) [1] | KS1 proliferation inhibitory effect (KS-1) | KS1 proliferation inhibitory effect (KS-1; listed as allose) | KG1 proliferation inhibitory effect (KG-1) | proportion of the cells in G2-M stage of the cell cycle [2] [%]
1 | O=C(CO)[C@H](O)[C@H](O)[C@H](O)CO [D-psicose] | reduced | – | – | – | – | – | –
2 | O=C[C@H](O)[C@H](O)[C@H](O)[C@H](O)CO [D-allose] | – | showed a cell proliferation inhibitory effect at 59 mM | strongly inhibited proliferation; also recorded: has a proliferation inhibitory effect | having the inhibitory effect | showed a cell proliferation inhibitory effect at 59 mM | having the inhibitory effect | 22.6
